Measurements taken from patent US6544750B1, “Peptide analogs as selective inhibitors of thrombin activation of protease activated receptor 1” (Thromgen, Inc., priority 1999, dated 2003).
Entries after “also recorded” stand apart in the source; their conditions may differ. Ends that are not written are not given here.

Columns and labels:
[1] = molecular target: T1, biotin-NAT12 (NATLDPRSFLLR, peptide from PAR1) (Homo sapiens, UniProt P25116); assay: Biotin-NAT12 binding assay to peptides coupled to microtiter plates; details: peptides at 10 μg/ml coupled to microtiter plate
[2] = tested on: Normal human lung fibroblasts (NHLF); assay: α-thrombin-induced calcium mobilization in fibroblasts (fura-2); format: cell-based; details: for Ca2+ % Inhibition At 0.2 mM Peptide: thrombin-induced calcium mobilization in fibroblasts
Protocol: The second assay developed to assess peptides from the combinatorial libraries uses inhibition of α-thrombin-induced calcium mobilization in fibroblasts. Normal human lung fibroblasts (NHLF) were purchased from Clonetics, San Diego, Calif., an affiliate of Bio-Wittaker, Walkersville, Md. The cytoplasmic free Ca^2+ concentration ([Ca^2+]i) was measured using the fluorescent Ca^2+ indicator fura-2 (Molecular Probes, Inc., Eugene, Oreg.). Suspension of fibroblasts in Hepes-Tyrode's buffer were loaded with fura-2 by incubation at 37° C. with 2 μM fura-2/acetoxymethyl ester for 45 minutes according to the method of Rasmussen et al., J. Biol. Chem. 268, 14322 (1993). The labeled fibroblasts were separated from excess probe by washing by centrifugation at 1000 rpm (180×g). Aliquots of the labeled fibroblasts were transferred into a quartz cuvette with a magnetic stirrer, which was then placed in a thennostatically controlled chamber at 37° C. in a fluorescence spectrophotometer (Perkin-Elmer LS50B spectrofluorometer, Chicago, Ill.). Reagents, test peptide (SEQ ID NO: 5) (from 0.2 mM to effective lower concentration), and α-thrombin (2-4 nM), were sequentially added directly to the cuvette. The excitation wavelengths varied between 340 and 380 nm. Fluorescence was measured by recording emitted light at 510 nm as reported by Fisher et al., Mol Pharm. 35, 195 (1989). The minimum emission was determined on a solubilized fibroblast sample in the presence of 10 mM EDTA; maximum emission was determined on the same sample with 10 mM Ca^2+ added. The intrafibroblast free Ca^2+ concentration was calculated by the method of Grykiewicz et al., J. Biol. Chem. 260, 3440 (1985). The ratio of the fluorescence readings was calculated as R=340/380 nm and processed according to the equation [Ca^2+]i=KD((R−Rmim)/Rmax−R)) (Sf2/Sb2) to determine the intrafibroblast free Ca^2+ concentration. The KD for fura-2 was assumed to be 224 nM. Rmax and Rmin are the maximum and minimum fluorescence ratios measured at the end of the experiment, respectively; Sf2 and Sb2 are the fluorescence values at 380 nm in the absence and presence of saturating [Ca 2+], respectively. The reaction was monitored for 3-5 minutes. […] In FIG. 4, peptide RGDWC (SEQ ID NO: 20) at 0.2 mM inhibited 31% of 4 nM α-thrombin-induced Ca^2+ mobilization in fibroblasts.

[3] = tested on: platelets (platelet-rich plasma); assay: ADP-induced platelet aggregation in platelet-rich plasma; format: cell-based, human; details: 1 mM peptide, 4.5 μM ADP
Protocol: (§1) Fresh whole blood was collected and mixed with 0.013 M sodium citrate and platelet-rich plasma was prepared according to the method of Meloni et al., J. Biol. Chem. 266, 6786 (1991). Platelet-rich plasma with a normalized platelet count between 2-2.5×10^8 platelets/ml was added to a cuvette of an aggregometer (Chronlog Corp., Havertown, Pa.), standardized using the protocol of Meloni et al., supra. Peptides to be examined were added to the cuvette and the mixture stabilized for a few moments. Once the baseline was stabilized, γ-thrombin (10-70 NM) (Haematologic Technologies, Essex Junction, Vt.) was added to determine the minimal concentration of the agonist necessary to achieve full platelet aggregation. All investigations with peptides were performed using threshold concentrations of γ-thrombin. Aggregation was allowed to proceed for 5 minutes before stopping. When ADP-induced platelet aggregation studies were performed, 1-5 μM ADP (Sigrna) was added to the cuvette containing platelet-rich plasma.

[4] = tested on: platelets (platelet-rich plasma); assay: γ-thrombin-induced platelet aggregation in platelet-rich plasma; format: cell-based, human; details: for peptide concentration at which γ-thrombin-induced platelet aggregation returned: 70 nM γ-thrombin; for Fold Increase in Aggregation Inhibition over RPPGF: γ-thrombin, compared to RPPGF at 0.2 mM
Protocol: as §1

[5] = molecular target: T1, biotin-NAT12 (NATLDPRSFLLR, peptide from PAR1); assay: Biotin-NAT12 binding assay to peptides coupled to microtiter plates; details: relative to RPPGF given arbitrary binding level of 1
Protocol: A third assay was developed to ascertain the ability of biotin-NAT12 (NATLDPRSFLLR, SEQ ID NO: 41) to directly bind to peptides linked to microtiter plates. In this assay, peptide analogs were linked to microtiter plate cuvette wells by incubation of the peptide in 0.1 M Na2CO3, pH 9.6 buffer overnight at 4° C. After coupling the peptide to the cuvette well, the wells were dumped and each well was blocked with 1% bovine serun albumin in 0.01 M Na3PO4, 0.15 M NaCl, at pH 7.4. After incubation for 1 hour, the wells were dumped and washed three times with PBS-Tween. The wells were then incubated with biotin-NAT12. The amount of biotin-NAT12 bound was determined by adding streptavidin-peroxidase followed by adding turbo TMB (Pierce).
In decreasing order of binding level, these peptides include: RGKSC, RGKMC, RGKHC, RGKKC, RGKFC, RGKLC, RGKWC, and RGKVC (SEQ ID NOS 18, 7, 13, 14, 11, 1, 5 and 19, respectively). […] The best to least RGDO4C (SEQ ID NO: 44) peptides to bind biotin-NAT12 listed in Table VI are: RGDSC, RGDGC, RGDQC, RGDEC, RGDIC, RGDPC, RGDDC, and RGDYC (SEQ ID NOS 34, 28, 23, 22, 36, 38, 27 and 35, respectively). A solid phase peptide-peptide binding assay was used to determine biotin-NAT12 binding to library peptides. Test peptides in 0.1 M Na2CO3, pH 9.6 buffer, at 10 μg/well in 50 μl volume, were coupled to microtiter plate wells by overnight incubation at 4° C. After incubation, the contents of the wells were discarded and the wells were washed with a pH 7.4 buffer containing 0.01 M Na3PO4, 0.15 M NaCl, and 0.01% Tween 20. After blocking each well with 1% radioimmunoassay grade bovine serum albumin, the linked peptides were incubated with 100 μl of 100 μM biotin-NAT12 for 1 hour at 37° C. After incubation, the contents of the wells were dumped and the wells were washed three times (100 μl/well each time) with the buffer identified above. Each well then was incubated with 100 μl of 2 μg/ml solution of Immuno-Pure streptoavidin horeseradish peroxidase conjugate (Pierce Chemical Co., […], Ill.) for 1 hour at room temperature. The contents of the wells were discarded and the wells were washed three times as described above. The wells were then incubated with 100 μl of peroxidase-specific fast reacting substrate, turbo-3,3′,5,5′-tetramethylbenzidine (turbo-TMB, Pierce) for 5 minutes at room temperature and the developing color reaction was stopped by the addition of 100 μof 1 M phosphoric acid. The absorbance was measured at 450 nm using a Microplate Auto Reader EL311 (Bio-Tek, Winooski, Vt.).

[6] = RGKO4C sublibrary, platelet-rich plasma

| Substance | level of biotin-NAT12 binding compared with other peptides (in words) [1] | peptide concentration at which α-thrombin overcame the inhibitory effect on Ca2+ mobilization ([2]; 2 nM α-thrombin, fibroblasts) [µM] | peptide concentration at which α-thrombin-induced calcium mobilization is abolished ([2]; 2 nM α-thrombin, fibroblasts) [mM] | peptide concentrations blocking α-thrombin-induced Ca2+ mobilization ([2]; 2 nM α-thrombin, fibroblasts) [µM] | Ca2+ % Inhibition At 0.2 mM Peptide ([2]; RGKO4C sublibrary) [%] | effect on ADP-induced platelet aggregation (in words) [3] | peptide concentration at which γ-thrombin-induced platelet aggregation returned ([4]; platelet-rich plasma) [mM] | Fold Increase in Aggregation Inhibition over RPPGF [4, 6] [fold] | Level of Binding to Biotin-NAT12 ([5]; RGKO4C sublibrary) | Fold Increase in Aggregation Inhibition over RPPGF ([4]; RGDO4C sublibrary) [fold] | Level of Binding to Biotin-NAT12 ([5]; RGDO4C sublibrary) | Ca2+ % Inhibition At 0.2 mM Peptide ([2]; RGDO4C sublibrary) [%] |
| --- | --- | --- | --- | --- | --- | --- | --- | --- | --- | --- | --- | --- |
| Arg-Gly-Lys-Trp-Cys (RGKWC-NH2) [peptide of the H-R-G-K-O4-C-NH2 sublibrary] | binds to a greater extent than peptide RGDWC; also recorded: greater than RPPGF; also recorded: less than that seen with the multiple branched peptide MAP4RPPGF | 12.5 | 0.2 | ≥ 50 | 62.5 | did not inhibit | 0.125 | 1.3 | 1.3 |  |  |  |
| Arg-Pro-Pro-Gly-Phe (RPPGF) [bradykinin analog peptide used as control, reference compound] |  |  |  |  |  | did not inhibit | 0.25 | 1.0 | 1.0 | 1 | 1 |  |
| RGDSC: peptide of the H-R-G-D-O4-C-NH2 sublibrary (H-RGDSC-NH2) | equivalent to the ability of RGKWC |  |  |  |  |  |  |  |  | 5 | 1.44 | 0 |
